Measurements as given in patent publication US12024510B2, “Pyrazolopyridine-diamides, their use as insecticide and processes for preparing the same” (PI INDUSTRIES LTD., priority 2017, dated 2024).

How the values were obtained:
Type in all cases: in vivo
[1] = system: Plutella xylostella; test: whole plant or invertebrate; details: foliar, cabbage leaf dip, second instar larvae, dead and moribund combined, 72 h after release
Method in brief: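 Leaf-dip bioassay: second-instar larvae, singly, fed on cabbage leaves dipped 10 s in test dispersion (bead-milled, diluted with 0.01% Triton-X to test concentration) and dried 20 min. Held at 25 °C, 70% RH; % mortality counts dead and moribund at 72 h.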

[2] = system: Helicoverpa armigera; test: Helicoverpa armigera diet incorporation method; details: third instar larvae, dead and moribund combined, 96 h after release
Method in brief: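 Third-instar larvae, starved, were placed singly on diet pieces containing test dispersion (bead-milled in surfactant, particles under 2 μm, 500 ppm stock then diluted). Trays kept at 25° C. and 70% RH; mortality counted at 96 h, moribund larvae counted with dead.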

[3] = system: Spodoptera litura; test: Spodoptera litura diet incorporation method; details: third instar larvae, dead and moribund combined, 96 h after release
Method: Test Solutions were Prepared According to the Procedure Described Herein Below (500 PPM):
• 1. Eppendorf Vortex mixer (ThermoMixer C) and 1.5 mL Eppendorf tubes • 2. Zirconia (Zirconium-Yttrium) beads having diameter of 0.8 to 1.0 mm • 3. Microscope • 4. Beaker 100 mL • 5. Micro-pipette Reagents: • 1. Surfactant Solution • 2. De-mineralized (DM) Water • 1. Weigh 10 mg of the compound of the present invention to be tested in an Eppendorf Tube. • 2. Add 200 mg of the Surfactant Solution into the tube. • 3. Add 600 mg of Zirconia beads into the above mixture. • 4. Fix the tube in Eppendorf Vortex mixer and start vortexing at 2000 rpm. • 5. Mix on Vortex mixer for 30 minutes. After 30 minutes, observe the sample over a microscope at 400× resolution. • 6. If the Maximum particle size is more than 5 μm or average particle size is more than 2 μm or the particle size distribution is uneven, continue vortexing for another 30 minutes and again check the particle size using the microscope. Continue till the average particle size is below 2 microns. • 7. When the required particle size is achieved, add 1.0 mL DM water into the tube, close the cap, shake the tube thoroughly and transfer the contents, along with the beads, into a beaker. • 8. To rinse the tube, add another 1.0 mL of DM water into the tube, close the cap, shake well and transfer this into the same beaker. • 9. Repeat Step no. 8 one more time so that the tube is rinsed well and the compound of the present invention to be tested is transferred to the beaker. • 10. Add 16.8 mL of DM water into the beaker and stir well. • 11. The homogeneous dispersion can then be decanted into a glass vial, immediately, to separate the Zirconia beads. • 12. Immediately use this sample for biological testing. • 13. Further dilutions can be prepared by taking appropriate quantity of the aliquot of Step 10, immediately after stirring, and diluting as per requirement. The sample solution must be well mixed just before biological testing.
Diet incorporation method was used, in which semi-synthetic diet was incorporated into the test solution when the temperature is approximately 50° C. in the bioassay containers and stirred thoroughly for properly mixing and then was allowed to cool for 30 min. The solidified diet was cut into equal pieces, and then each piece was transferred in one cell in Bio-assay trays. A single third instar starved larva was released into each of these cells of bioassay trays and the tray was covered with the lid. The bio-assay trays were kept under laboratory conditions at a temperature of 25° C. and Relative Humidity of 70%. Observations on dead, moribund and live larvae were recorded at 96 h after the release of larvae. Percent mortality was calculated by combining dead and moribund larvae. The following compound numbers

Measured: mortality at 300 ppm

C#CCNC(=O)c1c(NC(=O)c2cc(OC)nn2-c2ncccc2Cl)c(C)cc2ccnn12 [Compound 45, 6-(1-(3-chloropyridin-2-yl)-3-methoxy-1H-pyrazole-5-carboxamido)-5-methyl-N-(prop-2-yn-1-yl)pyrazolo[1,5-a]pyridine-7-carboxamide]
> 70%: all assays above

CNC(=O)c1c(NC(=O)c2cc(Cn3nnc(C(F)(F)F)n3)nn2-c2ncccc2Cl)c(C)cc2ccnn12 [Compound 166, 6-(1-(3-chloropyridin-2-yl)-3-((5-(trifluoromethyl)-2H-tetrazol-2-yl)methyl)-1H-pyrazole-5-carboxamido)-N,5-dimethylpyrazolo[1,5-a]pyridine-7-carboxamide]
> 70%: all assays above

CNC(=O)c1c(NC(=O)c2cc(Br)nn2-c2ncccc2Cl)c(C)cc2ccnn12 [Compound 1, 6-(3-bromo-1-(3-chloropyridin-2-yl)-1H-pyrazole-5-carboxamido)-N,5-dimethylpyrazolo[1,5-a]pyridine-7-carboxamide]
> 70%: all assays above

Cc1cc2ccnn2c(C(=O)NC(C)(C)C)c1NC(=O)c1cc(OCC(F)(F)F)nn1-c1ncccc1Cl [Compound 19, N-(tert-butyl)-6-(1-(3-chloropyridin-2-yl)-3-(2,2,2-trifluoroethoxy)-1H-pyrazole-5-carboxamido)-5-methylpyrazolo[1,5-a]pyridine-7-carboxamide]
> 70%: all assays above

Cc1cc2ccnn2c(C(=O)NC2COC2)c1NC(=O)c1cc(Br)nn1-c1ncccc1Cl [Compound 35, 6-(3-bromo-1-(3-chloropyridin-2-yl)-1H-pyrazole-5-carboxamido)-5-methyl-N-(oxetan-3-yl)pyrazolo[1,5-a]pyridine-7-carboxamide]
> 70%: all assays above

CCCCNC(=O)c1c(NC(=O)c2cc(Br)nn2-c2ncccc2Cl)c(Cl)cc2ccnn12 [Compound 139, 6-(3-bromo-1-(3-chloropyridin-2-yl)-1H-pyrazole-5-carboxamido)-N-butyl-5-chloropyrazolo[1,5-a]pyridine-7-carboxamide]
> 70%: all assays above

Cc1cc2ccnn2c(C(=O)NC(C)C2CC2)c1NC(=O)c1cc(C(F)(F)F)nn1-c1ncccc1Cl (stereo not drawn) [Compound 126, 6-(1-(3-chloropyridin-2-yl)-3-(trifluoromethyl)-1H-pyrazole-5-carboxamido)-N-(1-cyclopropylethyl)-5-methylpyrazolo[1,5-a]pyridine-7-carboxamide]
> 70%: all assays above

CCNC(=O)c1c(NC(=O)c2cc(OC)nn2-c2ncccc2Cl)c(Cl)cc2ccnn12 [Compound 134, 5-chloro-6-(1-(3-chloropyridin-2-yl)-3-methoxy-1H-pyrazole-5-carboxamido)-N-ethylpyrazolo[1,5-a]pyridine-7-carboxamide]
> 70%: all assays above

COc1cc(C(=O)Nc2c(C)cc3ccnn3c2C(=O)NC(C)C)n(-c2ncccc2Cl)n1 [Compound 32, 6-(1-(3-chloropyridin-2-yl)-3-methoxy-1H-pyrazole-5-carboxamido)-N-isopropyl-5-methylpyrazolo[1,5-a]pyridine-7-carboxamide]
> 70%: all assays above

COc1cc(C(=O)Nc2c(C)cc3ccnn3c2C(=O)NCC2CCCC2)n(-c2ncccc2Cl)n1 [Compound 203, 6-(1-(3-chloropyridin-2-yl)-3-methoxy-1H-pyrazole-5-carboxamido)-N-(cyclopentylmethyl)-5-methylpyrazolo[1,5-a]pyridine-7-carboxamide]
> 70%: all assays above

CNC(=O)c1c(NC(=O)c2cc(C(F)(F)F)nn2-c2ncccc2Cl)c(Cl)cc2ccnn12 [Compound 162, 5-chloro-6-(1-(3-chloropyridin-2-yl)-3-(trifluoromethyl)-1H-pyrazole-5-carboxamido)-N-methylpyrazolo[1,5-a]pyridine-7-carboxamide]
> 70%: all assays above

O=C(Nc1c(Cl)cc2ccnn2c1C(=O)NCC1CC1)c1cc(Br)nn1-c1ncccc1Cl [Compound 140, 6-(3-bromo-1-(3-chloropyridin-2-yl)-1H-pyrazole-5-carboxamido)-5-chloro-N-(cyclopropylmethyl)pyrazolo[1,5-a]pyridine-7-carboxamide]
> 70%: all assays above

CC(C)NC(=O)c1c(NC(=O)c2cc(Br)nn2-c2ncccc2Cl)c(Br)cc2ccnn12 [Compound 91, 5-bromo-6-(3-bromo-1-(3-chloropyridin-2-yl)-1H-pyrazole-5-carboxamido)-N-isopropylpyrazolo[1,5-a]pyridine-7-carboxamide]
> 70%: all assays above

Cc1cc2ccnn2c(C(=O)NC2CC2)c1NC(=O)c1cc(C(F)(F)F)nn1-c1ncccc1Cl [Compound 61, 6-(1-(3-chloropyridin-2-yl)-3-(trifluoromethyl)-1H-pyrazole-5-carboxamido)-N-cyclopropyl-5-methylpyrazolo[1,5-a]pyridine-7-carboxamide]
> 70%: all assays above

CNC(=O)c1c(NC(=O)c2cc(OC)nn2-c2ncccc2Cl)c(C)cc2ccnn12 [Compound 25, 6-(1-(3-chloropyridin-2-yl)-3-methoxy-1H-pyrazole-5-carboxamido)-N,5-dimethylpyrazolo[1,5-a]pyridine-7-carboxamide]
> 70%: all assays above

CCCNC(=O)c1c(NC(=O)c2cc(Br)nn2-c2ncccc2Cl)c(Br)cc2ccnn12 [Compound 50, 5-bromo-6-(3-bromo-1-(3-chloropyridin-2-yl)-1H-pyrazole-5-carboxamido)-N-propylpyrazolo[1,5-a]pyridine-7-carboxamide]
> 70%: all assays above

CCNC(=O)c1c(NC(=O)c2cc(Br)nn2-c2ncccc2Cl)ccc2ccnn12 [Compound 157, 6-(3-bromo-1-(3-chloropyridin-2-yl)-1H-pyrazole-5-carboxamido)-N-ethylpyrazolo[1,5-a]pyridine-7-carboxamide]
> 70%: all assays above

C#CCNC(=O)c1c(NC(=O)c2cc(Br)nn2-c2ncccc2Cl)c(Cl)cc2ccnn12 [Compound 141, 6-(3-bromo-1-(3-chloropyridin-2-yl)-1H-pyrazole-5-carboxamido)-5-chloro-N-(prop-2-yn-1-yl)pyrazolo[1,5-a]pyridine-7-carboxamide]
> 70%: all assays above
